Key:
Format in all cases: cell-based
NaV1.7 = biological target: T1, NaV1.7 (Homo sapiens, UniProt Q15858); assay: Tl+-flux selectivity panel in HEK-293 cells: NaV1.7; details: HEK293, 10 µM test compound, relative to control TC-N 1752, read-out: Percent Inhibition ± SEM
T1 construct: expressed in transfected cells; host or cells: HEK293
Procedure: (§1) With a handful of analogs that offered improved SLACK potency relative to hit compound 8, we next proceeded to investigate the ancillary pharmacology of such compounds, both with respect to other Slo family members as well as versus a spectrum of diverse ion channels (Table 5). Thus, we screened four compounds (32, 48, 70, and 71) at 10 µM in our in-house selectivity panel of Tl^+-flux assays in HEK-293 cells stably expressing the target of interest. […] Some valuable SAR was noted as well. […] Reduction of inhibition at Maxi-K α1/β4 also followed. This SAR will be important to bear in mind for continued optimization within this series. […] Of particular note is the lack of significant hERG activity in this series, as activity versus that counter-target has been an issue with other SLACK inhibitors.
(§2) Stably transfected monoclonal HEK293 cell lines expressing Slick, Maxi-K α1/β3, Maxi-K α1/β4, CaV3.2, GIRK 1/2, KV2.1, KV7.2, NaV1.7, and TASK-1 were generated as previously described. Stably transfected monoclonal HEK293 cell lines expressing hERG were generated as previously described. CHO-K1 cells expressing human Slack and disease-associated human Slack mutations, G288S and A934T, were generated by transfecting a PiggyBac TRE mammalian expression vector (VectorBuilder, Chicago, IL, USA) containing KCNT1. FuGENE 6 (Promega, Madison, WI, USA) transfection reagent and protocol, together with Opti-MEM (Thermo Fisher Scientific, Walkham, MA, USA), were utilized.
(§3) The Tl^+ flux assays were conducted as previously described with modifications optimized for individual cell lines as described below. Following removal of cell culture media, cells were loaded with Tl^+-sensitive dye loading solution containing Thallos-AM (ION Biosciences, San Marcos, TX, USA), 1.25 mM Probenecid, and 0.3% Pluronic F-127 (MilliporeSigma, Burlington, MA, USA), in assay buffer comprised of Hanks Balanced Salt Solution (HBSS) (Thermo Fisher Scientific, Waltham, MA, USA) and 20 mM HEPES (Corning, Corning, NY, USA) at room temperature for one-hour. Dye loading solution was replaced with 20 μL/well of assay buffer prior to assaying. Cell plates were then loaded onto a Panoptic kinetic imaging plate reader (WaveFront Biosciences, Franklin, TN, USA). Data were acquired at 5 Hz (excitation 482 ± 35 nm, emission 536 ± 40 nm) for 10 s, at which time 20 μL/well of test compounds in assay buffer at 2-fold above the desired final concentration was added and allowed to incubate for 120 s. Next, 10 μL/well of Tl^+ stimulus buffer (129 mM Na gluconate, 1.2 mM CaSO4, 1 MgSO4, 1 mM Na2HPO4, 4.17 mM NaHCO3, 5.56 mM glucose, 2.5 mM Tl2SO4, and 10 mM HEPES pH 7.3) was added. Imaging was concluded after an additional 120 s.

SLICK = biological target: T2, SLICK (Homo sapiens, UniProt Q6UVM3); assay: Tl+-flux selectivity panel in HEK-293 cells: SLICK; details: HEK293, 10 µM test compound, relative to control SKF96365, read-out: Percent Inhibition ± SEM
T2 construct: expressed in transfected cells; host or cells: HEK293
T2 sequence (Q6UVM3 1-1135): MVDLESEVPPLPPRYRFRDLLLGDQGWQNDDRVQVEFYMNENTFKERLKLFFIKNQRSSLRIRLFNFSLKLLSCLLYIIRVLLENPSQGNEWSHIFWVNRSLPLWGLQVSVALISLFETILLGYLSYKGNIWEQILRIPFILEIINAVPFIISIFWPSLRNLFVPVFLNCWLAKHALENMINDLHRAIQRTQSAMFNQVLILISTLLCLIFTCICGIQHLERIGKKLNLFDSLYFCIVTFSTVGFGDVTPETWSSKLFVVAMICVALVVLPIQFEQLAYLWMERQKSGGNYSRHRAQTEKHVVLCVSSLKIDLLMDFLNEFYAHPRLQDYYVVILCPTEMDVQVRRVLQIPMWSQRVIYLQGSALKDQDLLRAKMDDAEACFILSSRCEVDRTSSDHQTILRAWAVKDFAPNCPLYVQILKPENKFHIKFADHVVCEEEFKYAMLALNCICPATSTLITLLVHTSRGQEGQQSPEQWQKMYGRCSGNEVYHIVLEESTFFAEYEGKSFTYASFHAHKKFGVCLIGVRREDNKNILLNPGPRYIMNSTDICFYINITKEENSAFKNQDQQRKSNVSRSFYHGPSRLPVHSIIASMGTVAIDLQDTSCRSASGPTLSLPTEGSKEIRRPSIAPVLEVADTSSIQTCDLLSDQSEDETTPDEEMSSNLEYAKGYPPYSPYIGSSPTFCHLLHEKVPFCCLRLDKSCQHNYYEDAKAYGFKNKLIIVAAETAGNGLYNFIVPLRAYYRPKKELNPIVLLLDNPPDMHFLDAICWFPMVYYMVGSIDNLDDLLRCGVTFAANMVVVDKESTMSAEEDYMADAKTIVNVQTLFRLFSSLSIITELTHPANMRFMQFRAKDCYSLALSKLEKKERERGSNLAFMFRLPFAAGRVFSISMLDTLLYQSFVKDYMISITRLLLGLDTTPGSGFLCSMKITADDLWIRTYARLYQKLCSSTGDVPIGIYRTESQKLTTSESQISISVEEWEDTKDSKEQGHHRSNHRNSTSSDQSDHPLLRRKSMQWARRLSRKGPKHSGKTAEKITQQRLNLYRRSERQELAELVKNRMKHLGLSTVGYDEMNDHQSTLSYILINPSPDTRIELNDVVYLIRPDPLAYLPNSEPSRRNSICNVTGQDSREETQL
Procedure: as §1, §2, §3

CaV3.2 = biological target: T3, CaV3.2 (Homo sapiens, UniProt O95180); assay: Tl+-flux selectivity panel in HEK-293 cells: CaV3.2; details: HEK293, 10 µM test compound, relative to control bepridil, read-out: Percent Inhibition ± SEM
T3 construct: expressed in transfected cells; host or cells: HEK293
Procedure: as §1, §2, §3

T3 sequence (O95180 whole entry): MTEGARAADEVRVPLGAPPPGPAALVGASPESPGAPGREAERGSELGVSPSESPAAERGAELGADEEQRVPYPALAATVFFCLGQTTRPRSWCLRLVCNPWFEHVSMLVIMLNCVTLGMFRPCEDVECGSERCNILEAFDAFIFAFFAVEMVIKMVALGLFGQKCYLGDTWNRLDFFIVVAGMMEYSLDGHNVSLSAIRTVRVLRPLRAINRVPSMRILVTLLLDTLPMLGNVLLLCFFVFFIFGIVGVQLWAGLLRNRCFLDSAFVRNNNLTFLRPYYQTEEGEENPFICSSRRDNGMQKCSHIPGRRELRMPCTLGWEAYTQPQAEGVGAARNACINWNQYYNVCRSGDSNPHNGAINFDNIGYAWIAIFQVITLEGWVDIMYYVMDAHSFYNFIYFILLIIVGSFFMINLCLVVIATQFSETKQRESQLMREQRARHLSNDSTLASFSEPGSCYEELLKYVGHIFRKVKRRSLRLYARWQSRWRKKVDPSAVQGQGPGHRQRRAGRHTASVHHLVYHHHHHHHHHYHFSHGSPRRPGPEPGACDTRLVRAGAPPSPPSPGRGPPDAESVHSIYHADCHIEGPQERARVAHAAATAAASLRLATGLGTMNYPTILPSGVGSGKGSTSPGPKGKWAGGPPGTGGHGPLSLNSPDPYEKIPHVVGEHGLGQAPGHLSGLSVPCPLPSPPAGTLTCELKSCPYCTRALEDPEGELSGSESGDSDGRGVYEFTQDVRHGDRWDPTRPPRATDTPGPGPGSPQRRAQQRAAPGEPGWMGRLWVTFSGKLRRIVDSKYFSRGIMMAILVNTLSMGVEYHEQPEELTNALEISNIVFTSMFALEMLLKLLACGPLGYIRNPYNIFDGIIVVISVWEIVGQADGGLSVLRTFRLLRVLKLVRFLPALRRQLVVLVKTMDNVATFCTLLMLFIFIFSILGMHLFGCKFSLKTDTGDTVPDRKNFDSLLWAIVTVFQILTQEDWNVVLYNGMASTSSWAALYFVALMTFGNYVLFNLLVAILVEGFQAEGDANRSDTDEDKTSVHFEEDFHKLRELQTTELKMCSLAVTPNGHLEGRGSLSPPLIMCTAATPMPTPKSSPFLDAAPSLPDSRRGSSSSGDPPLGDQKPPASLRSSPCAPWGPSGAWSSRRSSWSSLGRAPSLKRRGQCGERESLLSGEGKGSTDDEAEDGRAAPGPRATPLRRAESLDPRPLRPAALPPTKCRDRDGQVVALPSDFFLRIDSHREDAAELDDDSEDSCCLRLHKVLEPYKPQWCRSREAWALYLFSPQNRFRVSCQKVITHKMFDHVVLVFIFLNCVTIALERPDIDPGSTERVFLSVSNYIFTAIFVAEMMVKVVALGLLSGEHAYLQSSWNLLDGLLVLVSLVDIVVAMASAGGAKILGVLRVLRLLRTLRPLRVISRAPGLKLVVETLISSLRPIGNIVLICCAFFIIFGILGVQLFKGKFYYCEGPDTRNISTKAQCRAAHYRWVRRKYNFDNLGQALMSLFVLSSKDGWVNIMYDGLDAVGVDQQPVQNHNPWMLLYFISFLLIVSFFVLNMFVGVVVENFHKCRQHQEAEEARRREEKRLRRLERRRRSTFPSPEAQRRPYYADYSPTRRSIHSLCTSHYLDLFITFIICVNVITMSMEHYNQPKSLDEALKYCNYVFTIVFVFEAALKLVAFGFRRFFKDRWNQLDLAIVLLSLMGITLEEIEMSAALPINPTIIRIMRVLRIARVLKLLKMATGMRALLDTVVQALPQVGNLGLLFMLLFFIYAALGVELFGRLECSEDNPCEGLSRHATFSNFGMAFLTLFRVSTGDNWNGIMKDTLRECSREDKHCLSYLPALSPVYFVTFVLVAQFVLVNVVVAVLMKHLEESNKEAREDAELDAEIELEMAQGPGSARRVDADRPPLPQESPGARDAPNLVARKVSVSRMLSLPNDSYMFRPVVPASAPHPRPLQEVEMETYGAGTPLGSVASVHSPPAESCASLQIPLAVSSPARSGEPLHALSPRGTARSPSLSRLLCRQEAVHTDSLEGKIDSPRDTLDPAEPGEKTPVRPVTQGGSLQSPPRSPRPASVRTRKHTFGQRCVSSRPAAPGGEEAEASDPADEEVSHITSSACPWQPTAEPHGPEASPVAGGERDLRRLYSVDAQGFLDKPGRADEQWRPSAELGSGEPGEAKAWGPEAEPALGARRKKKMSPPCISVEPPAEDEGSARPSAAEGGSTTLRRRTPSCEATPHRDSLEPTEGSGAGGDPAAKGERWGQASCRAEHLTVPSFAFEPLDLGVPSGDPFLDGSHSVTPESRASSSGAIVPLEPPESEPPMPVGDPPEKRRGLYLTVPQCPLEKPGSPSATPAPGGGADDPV
T1 sequence (Q15858 whole entry): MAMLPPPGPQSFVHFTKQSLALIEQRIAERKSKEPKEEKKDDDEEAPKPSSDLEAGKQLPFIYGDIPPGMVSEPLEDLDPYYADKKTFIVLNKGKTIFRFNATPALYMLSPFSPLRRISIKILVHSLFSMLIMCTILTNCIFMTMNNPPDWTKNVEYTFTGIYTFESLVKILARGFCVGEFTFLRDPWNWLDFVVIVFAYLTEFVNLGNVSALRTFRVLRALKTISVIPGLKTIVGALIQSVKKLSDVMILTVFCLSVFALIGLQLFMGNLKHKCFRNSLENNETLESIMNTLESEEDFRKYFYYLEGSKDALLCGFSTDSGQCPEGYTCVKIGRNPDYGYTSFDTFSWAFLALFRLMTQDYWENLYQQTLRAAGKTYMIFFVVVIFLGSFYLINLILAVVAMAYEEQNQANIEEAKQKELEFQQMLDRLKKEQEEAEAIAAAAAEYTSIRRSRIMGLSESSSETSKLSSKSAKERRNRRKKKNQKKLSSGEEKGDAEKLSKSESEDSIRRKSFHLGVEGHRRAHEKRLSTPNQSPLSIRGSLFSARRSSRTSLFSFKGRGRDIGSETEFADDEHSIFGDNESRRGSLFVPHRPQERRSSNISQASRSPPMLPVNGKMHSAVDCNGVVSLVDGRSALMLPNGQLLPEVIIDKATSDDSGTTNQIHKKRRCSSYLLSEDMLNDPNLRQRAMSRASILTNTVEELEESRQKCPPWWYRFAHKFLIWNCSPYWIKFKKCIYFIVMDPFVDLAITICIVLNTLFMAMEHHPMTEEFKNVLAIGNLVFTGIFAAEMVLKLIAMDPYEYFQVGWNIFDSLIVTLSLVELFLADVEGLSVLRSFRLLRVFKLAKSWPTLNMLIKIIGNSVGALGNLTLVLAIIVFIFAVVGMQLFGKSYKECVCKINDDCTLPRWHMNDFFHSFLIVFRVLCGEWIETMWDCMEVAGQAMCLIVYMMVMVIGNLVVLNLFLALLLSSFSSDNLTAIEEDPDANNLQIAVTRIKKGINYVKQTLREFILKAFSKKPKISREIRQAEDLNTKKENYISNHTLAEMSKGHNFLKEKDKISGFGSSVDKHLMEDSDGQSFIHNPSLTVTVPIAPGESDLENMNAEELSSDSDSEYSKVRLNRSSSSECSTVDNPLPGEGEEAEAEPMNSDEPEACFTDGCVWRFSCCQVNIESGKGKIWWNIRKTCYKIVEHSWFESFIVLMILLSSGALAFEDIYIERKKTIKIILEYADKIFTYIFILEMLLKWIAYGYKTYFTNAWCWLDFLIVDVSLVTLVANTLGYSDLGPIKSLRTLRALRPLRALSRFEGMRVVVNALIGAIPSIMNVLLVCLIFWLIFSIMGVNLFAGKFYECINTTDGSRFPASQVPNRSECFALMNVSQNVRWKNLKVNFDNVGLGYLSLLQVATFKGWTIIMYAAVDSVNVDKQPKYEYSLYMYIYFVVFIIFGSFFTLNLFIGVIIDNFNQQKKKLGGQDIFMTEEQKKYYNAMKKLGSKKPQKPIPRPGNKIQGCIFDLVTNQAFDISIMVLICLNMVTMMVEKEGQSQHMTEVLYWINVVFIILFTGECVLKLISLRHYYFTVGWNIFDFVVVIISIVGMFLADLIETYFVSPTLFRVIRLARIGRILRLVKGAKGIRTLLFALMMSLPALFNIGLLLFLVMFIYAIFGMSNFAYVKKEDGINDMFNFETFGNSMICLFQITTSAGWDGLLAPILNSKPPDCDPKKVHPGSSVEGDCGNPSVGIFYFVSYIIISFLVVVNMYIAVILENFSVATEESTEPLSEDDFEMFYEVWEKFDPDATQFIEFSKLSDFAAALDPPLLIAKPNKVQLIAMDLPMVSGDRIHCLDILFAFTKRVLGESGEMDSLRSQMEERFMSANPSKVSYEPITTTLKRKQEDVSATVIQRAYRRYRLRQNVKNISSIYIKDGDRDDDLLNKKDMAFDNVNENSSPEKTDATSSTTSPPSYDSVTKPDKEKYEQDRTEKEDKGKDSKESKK

COc1cccc(Cn2c(=O)c3c(nc(N(C)Cc4ccccc4)n3C)n(C)c2=O)c1 [Analog 32]
inhibition at 10 µM (NaV1.7): 41 ± 3.3%
inhibition at 10 µM (SLICK): 28 ± 5.5%
inhibition at 10 µM (CaV3.2): 18 ± 1.6%

CN(Cc1cccc(F)c1)c1nc2c(c(=O)n(Cc3ccccc3)c(=O)n2C)n1C [Analog 48]
inhibition at 10 µM (NaV1.7): 39 ± 3.1%
inhibition at 10 µM (SLICK): 21 ± 3.1%
inhibition at 10 µM (CaV3.2): 17 ± 4.2%

CCCCN(Cc1ccccc1)c1nc2c(c(=O)n(Cc3ccccc3)c(=O)n2C)n1C [Analog 70]
inhibition at 10 µM (NaV1.7): 33 ± 1.4%
inhibition at 10 µM (SLICK): 18 ± 4.2%
inhibition at 10 µM (CaV3.2): 16 ± 2.2%

Cn1c(N(Cc2ccccc2)CC2CC2)nc2c1c(=O)n(Cc1ccccc1)c(=O)n2C [Analog 71]
inhibition at 10 µM (NaV1.7): 29 ± 3%
inhibition at 10 µM (SLICK): 17 ± 2.5%
inhibition at 10 µM (CaV3.2): 24 ± 3.6%
